Test results: EP0349431B1, “Sucrose derivatives” (BEGHIN-SAY SOCIETE ANONYME, priority 1988, dated 1990)

What was measured:
Format in all cases: cell-based
[1] = tested on: souches étudiées (Streptoccus fecalis, Escherichia coli, Proteus morganii, Staphylococcus); assay: Bacteriostatic activity (CMI), overall statement for the strains of Exemple 9; conditions: summary sentence in the text: good bacteriostatic activity, all strains of Exemple 9
Procedure: (§1) On a préparé des mélanges de solutions limpides de l'échantillon et du milieu de culture, contenant un adjuvant de dissolution, ajouté à raison de la quantité minimale nécessaire.
(§2) On a introduit les solutions obtenues telles quelles ou diluées dans des tubes stériles sous un volume inférieur ou égal à 2,5 ml, que l'on a ensuite ajusté sinécessaire à 2,5 ml à l'aide d'eau stérile. On a alors ajouté à chaque tube 2,5 ml de bouillon nutritif préparé à concentration double, ensemencé de façon à contenir environ 1000 germes par ml et ayant la composition suivante : peptone bactériologique 10 g extrait de viande de boeuf 5 g chlorure de sodium 5 g eau déminéralisèe Q S P 500 ml pH ajusté à 7,2 à l'aide de potasse. stérilisation par fractions de 50 ml 20 mn à 120°C
Les souches testées sont cultivées sur milieu gélosé "trypticase-soja" dont la compositon de formulation : peptone trypsique de caséine 15 g peptone papaïnique de soja 5 g chlorure de sodium 5 g gélose 15 g eau déminéralisée Q S P 1000 ml pH ajusté à l'aide de potasse à 7,3 stérilisation 20 mn à 120°C. […]

[2] = tested on: Streptoccus fecalis (ATCC 9790); assay: Bacteriostatic activity (CMI), dilution technique in liquid medium, Exemple 9; conditions: read after 24 H incubation at 35°C
Procedure: as §1, §2
(§3) Les souches testées sont cultivées sur milieu gélosé "trypticase-soja" dont la compositon de formulation : peptone trypsique de caséine 15 g peptone papaïnique de soja 5 g chlorure de sodium 5 g gélose 15 g eau déminéralisée Q S P 1000 ml pH ajusté à l'aide de potasse à 7,3 stérilisation 20 mn à 120°C.
(§4) Après incubation 18 H à 35°C on ensemence à l'aide de ces cultures des tubes de milieu liquide "trypticase-soja" de formulation : peptone trypsique de caséine 17 g peptone papaïnique de soja 3 g chlorure de sodium 5 g phosphate dipotassique 2,5 g glucose 2,5 g eau déminéralisée Q S P 1000 ml pH ajusté à 7,3 à l'aide de potasse stérilisation 20 mn à 120°C.
(§5) Après 18 H d'incubation à 35°C, les cultures obtenues sont homogénéisées puis diluées.
(§6) Les quatres souches suivantes ont été testées : • Streptoccus fecalis (ATCC 9790) • Escherichia coli (ATCC 10536) • Proteus morganii (ATCC 53185) • Staphylococcus (ATCC 6538P)
(§7) On a effectué trois essais, en utilisant les gammes de concentrations suivantes de dipalmitate-6,6′-saccharose oxydé
(§8) On a effectué l'incubation des tubes à 35°C. Les lectures ont été faites après 18, 24 et 48 H en comparaison avec des tubes témoins de croissance de chaque microorganisme testé, en présence d'un agent tensio-actif : Tween 80 (marque de fabrique d'Atlas Chemical Industries, Inc) pour l'essai N° 1 et Triton X 100, (marque de fabrique de Rohm & Haas Co) pour les essais N°2 et N°3. Les résultats, donnés dans le Tableau I ci-dessous, relevés après 24 H d'incubation, indiquent la concentration (mg/ml) testée en dipalmitate-6,6′-saccharose oxydé à partir de laquelle on observe une absence de développement bactérien pour chacune des souches étudiées.

[3] = tested on: Staphylococcus (ATCC 6538P); assay: as above; conditions: for concentration à partir de laquelle on observe une absence de développement bactérien: Triton X 100, read after 24 H incubation at 35°C
Procedure: as §1, §2, §3, §4, §5, §6, §7, §8

[4] = tested on: Escherichia coli (ATCC 10536); assay: as above; conditions: read after 24 H incubation at 35°C
Procedure: as §1, §2, §3, §4, §5, §6, §7, §8

[5] = tested on: Proteus morganii (ATCC 53185); assay: as above; conditions: read after 24 H incubation at 35°C
Procedure: as §1, §2, §3, §4, §5, §6, §7, §8

[6] = Essai N°1, Tween 80, tested 0,1 - 1 - 10 mg/ml
[7] = Essai N°2, Triton X 100, tested 0,1 - 1,6 mg/ml
[8] = Essai N°3, Triton X 100, tested 0,006 - 3,2 mg/ml

Substance: dipalmitate-6,6′-saccharose oxydé
- concentration minimale inhibitrice (CMI) [1]: 1,6 mg/ml
- concentration à partir de laquelle on observe une absence de développement bactérien [2, 6]: 1 mg/mL
- concentration à partir de laquelle on observe une absence de développement bactérien [2, 7]: 0,8 mg/ml
- concentration à partir de laquelle on observe une absence de développement bactérien [2, 8]: 0,8 mg/ml
- concentration à partir de laquelle on observe une absence de développement bactérien ([3]; Essai N°2, tested 0,1 - 1,6 mg/ml): < 0,1 mg/ml
- concentration à partir de laquelle on observe une absence de développement bactérien ([3]; Essai N°3, tested 0,006 - 3,2 mg/ml): 0,01 mg/ml
- concentration suffisante pour inhiber son développement ([3]; summary sentence in the text on Exemple 9): ≤ 0,01 mg/ml
- concentration à partir de laquelle on observe une absence de développement bactérien [4, 6]: 1 mg/mL
- concentration à partir de laquelle on observe une absence de développement bactérien [4, 7]: 0,8 mg/ml
- concentration à partir de laquelle on observe une absence de développement bactérien [4, 8]: 1,6 mg/ml
- concentration à partir de laquelle on observe une absence de développement bactérien [5, 6]: 1 mg/mL
- concentration à partir de laquelle on observe une absence de développement bactérien [5, 7]: 0,2 mg/ml
- concentration à partir de laquelle on observe une absence de développement bactérien [5, 8]: 0,2 mg/ml
